Read-outs that look alike come from different tables or passages of the source.
Tests used:
[1] = test system: p-IKKa levels in L363 (NIK translocated multiple myeloma) cells; test: Effect of compounds on p-IKKa levels in L363 (NIK translocated multiple myeloma) cells (AlphaLISA SureFire Ultra p-IKKa Ser176/180); type: cell-based, human; conditions: average if tested more than once, read-out: Assay 2 IC50
Summary of the method: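 Phospho-IKKa (Ser176/180) in lysates quantified by AlphaLISA after 6 h compound exposure, 11-point threefold dilutions, 0.3% DMSO. L363 cells were pre-stimulated overnight and assayed with 250 ng/ml BAFF and 10 μM MG132; % inhibition fitted sigmoidally for IC50, duplicate curves.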

[2] = target: Recombinant Human NF-kappaB-Inducing Kinase (NIK/MAP3K14) (Homo sapiens, UniProt Q99558); test: Inhibition of auto-phosphorylation of recombinant human NIK/MAP3K14 activity (AlphaScreen); type: biochemical; conditions: 5 μM ATP, 1 nM NIK, average if tested more than once
Chain of Recombinant Human NF-kappaB-Inducing Kinase (NIK/MAP3K14) (Q99558 whole entry): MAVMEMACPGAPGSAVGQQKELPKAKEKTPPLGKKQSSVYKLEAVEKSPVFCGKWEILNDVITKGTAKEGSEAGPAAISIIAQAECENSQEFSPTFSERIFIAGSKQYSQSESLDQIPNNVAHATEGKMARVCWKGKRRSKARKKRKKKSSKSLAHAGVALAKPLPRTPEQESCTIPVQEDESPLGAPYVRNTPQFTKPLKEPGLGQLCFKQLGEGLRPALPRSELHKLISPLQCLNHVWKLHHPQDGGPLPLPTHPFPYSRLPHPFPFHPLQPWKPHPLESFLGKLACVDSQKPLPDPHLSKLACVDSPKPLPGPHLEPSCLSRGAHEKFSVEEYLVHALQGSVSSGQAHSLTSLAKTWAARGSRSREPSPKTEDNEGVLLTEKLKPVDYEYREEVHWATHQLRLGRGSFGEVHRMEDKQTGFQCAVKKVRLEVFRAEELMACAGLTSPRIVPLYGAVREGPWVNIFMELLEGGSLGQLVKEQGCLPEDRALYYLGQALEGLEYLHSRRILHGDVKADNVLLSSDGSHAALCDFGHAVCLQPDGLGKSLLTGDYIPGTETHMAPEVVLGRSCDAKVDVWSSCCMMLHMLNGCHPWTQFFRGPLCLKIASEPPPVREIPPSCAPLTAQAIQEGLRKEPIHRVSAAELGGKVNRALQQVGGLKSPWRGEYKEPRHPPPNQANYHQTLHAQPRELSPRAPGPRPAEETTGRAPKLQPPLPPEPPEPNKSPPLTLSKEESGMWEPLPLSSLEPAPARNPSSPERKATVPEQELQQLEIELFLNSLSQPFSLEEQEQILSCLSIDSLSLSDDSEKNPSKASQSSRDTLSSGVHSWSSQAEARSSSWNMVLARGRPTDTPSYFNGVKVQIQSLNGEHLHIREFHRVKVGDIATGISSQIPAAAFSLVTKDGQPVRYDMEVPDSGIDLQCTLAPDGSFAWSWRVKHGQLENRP
Summary of the method: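 AlphaScreen detection of phospho-Ser176/180 after 1 nM GST-NIK auto-phosphorylates for 2 h at 25 °C with 5 μM ATP (50 mM Tris pH 7.5, 0.7% DMSO). IC50s come from sigmoidal curves of % inhibition against log dose, using enzyme-free, ATP-free low controls and full-activity high controls.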

[3] = Homo sapiens, L-363, p-IKKa levels in L363 cells

SMILES | IC50 [1, 3] | IC50 [2] | IC50 ([1]; p-IKKa levels in L363 cells)
CN1CC[C@@](O)(c2cccc(-c3nc(-c4ccnc(NC5CC5)n4)cs3)c2)C1=O [Example 137, (R)-3-(3-(4-(2-(cyclopropylamino)pyrimidin-4-yl)thiazol-2-yl)phenyl)-3-hydroxy-1-methylpyrrolidin-2-one] | > 501 nM | < 100 nM | 
CN1CC[C@@](O)(c2cccc(-c3nc(-c4ccnc(Nc5cc6ccccn6n5)n4)cs3)c2)C1=O [Example 277, (R)-3-Hydroxy-1-methyl-3-(3-(4-(2-(pyrazolo[1,5-a]pyridin-2-ylamino)pyrimidin-4-yl)thiazol-2-yl)phenyl)pyrrolidin-2-one] | > 501 nM | 100 to 500 nM | 
CN1C(=O)[C@](O)(c2ccnc(-c3csc(-c4ccnc(Nc5ccn(C)n5)n4)n3)c2)C[C@H]1C(F)(F)F (single isomer, unassigned) [Example 59] | 100 to 500 nM | < 100 nM | 
CN1CC[C@@](O)(c2cccc(-c3nc(-c4ccnc(NC5(c6ncccn6)CC5)n4)cs3)c2)C1=O [Example 226] | > 501 nM | > 501 nM | 
CN1CC[C@@](O)(c2cccc(-c3nc(-c4ccnc(NC5CCOCC5)n4)cs3)c2)C1=O [Example 181] | > 501 nM | 100 to 500 nM | 
CC(Nc1nccc(-c2nc(-c3cccc(C4(O)CCN(C)C4=O)c3)cs2)n1)c1cnn(C)c1 (single isomer, unassigned) [Example 39] |  | < 100 nM | < 100 nM
CN1CC[C@@](O)(c2cccc(-c3nc(-c4ccnc(Nc5cn(C)nc5OCC(F)(F)F)n4)cs3)c2)C1=O [Example 98, (R)-3-hydroxy-1-methyl-3-(3-(4-(2-((1-methyl-3-(2,2,2-trifluoroethoxy)-1H-pyrazol-4-yl)amino)pyrimidin-4-yl)thiazol-2-yl)phenyl)pyrrolidin-2-one] | < 100 nM | < 100 nM | 
CCOc1cn(C)nc1Nc1nccc(-c2csc(-c3cccc([C@]4(O)CCN(C)C4=O)c3)n2)n1 [Example 78, (R)-3-(3-(4-(2-((4-ethoxy-1-methyl-1H-pyrazol-3-yl)amino)pyrimidin-4-yl)thiazol-2-yl)phenyl)-3-hydroxy-1-methylpyrrolidin-2-one] | < 100 nM | < 100 nM | 
C[C@H](Nc1nccc(-c2csc(-c3cccc([C@]4(O)CCN(C)C4=O)c3)n2)n1)c1cncn1C (single isomer, unassigned) [Example 133] | > 501 nM | < 100 nM | 
Cc1cn(-c2ccnc(Nc3ccn(C)n3)n2)nc1-c1cc(C2(O)CCN(C)C2=O)ccn1 (racemic) [Example 32, (R, S)-3-Hydroxy-1-methyl-3-(2-(4-methyl-1-(2-((1-methyl-1H-pyrazol-3-yl)amino)pyrimidin-4-yl)-1H-pyrazol-3-yl)pyridin-4-yl)pyrrolidin-2-one] | > 501 nM | < 100 nM | 
CN1CC[C@@](O)(c2cccc(-c3nc(-c4ccnc(Nc5ccnn5CC5CC5)n4)cs3)c2)C1=O [Example 65, (R)-3-(3-(4-(2-((1-(cyclopropylmethyl)-1H-pyrazol-5-yl)amino)pyrimidin-4-yl)thiazol-2-yl)phenyl)-3-hydroxy-1-methylpyrrolidin-2-one] | > 501 nM | 100 to 500 nM | 
CC(C)n1cc(Nc2nccc(-c3csc(-c4cccc([C@]5(O)CCN(C)C5=O)c4)n3)n2)cn1 [Example 276, (R)-3-Hydroxy-3-(3-(4-(2-((1-isopropyl-1H-pyrazol-4-yl)amino)pyrimidin-4-yl)thiazol-2-yl)phenyl)-1-methylpyrrolidin-2-one] | < 100 nM | < 100 nM | 
CN1CC[C@@](O)(c2cccc(-c3nc(-c4ccnc(Nc5cccc(OC(F)F)n5)n4)cs3)c2)C1=O [Example 168, (R)-3-(3-(4-(2-((6-(Difluoromethoxy)pyridin-2-yl)amino)pyrimidin-4-yl)thiazol-2-yl)phenyl)-3-hydroxy-1-methylpyrrolidin-2-one] | > 501 nM | < 100 nM | 
C[C@@H](Nc1nccc(-c2nc(-c3cc([C@]4(O)CCN(C)C4=O)ccn3)cs2)n1)c1ccn(C)n1 (single isomer, unassigned) [Example 157, (R)-3-hydroxy-1-methyl-3-(2-(2-(2-(((R)-1-(1-methyl-1H-pyrazol-3-yl)ethyl)amino)pyrimidin-4-yl)thiazol-4-yl)pyridin-4-yl)pyrrolidin-2-one or (S)-3-hydroxy-1-methyl-3-(2-(2-(2-(((R)-1-(1-methyl-1H-pyrazol-3-yl)ethyl)amino)pyrimidin-4-yl)thiazol-4-yl)pyridin-4-yl)pyrrolidin-2-one] | > 501 nM | 100 to 500 nM | 
CN1CC[C@@](O)(c2cncc(-c3csc(-c4ccnc(Nc5cnn(C)c5)n4)n3)c2)C1=O (single isomer, unassigned) [Example 152, (R)-3-hydroxy-1-methyl-3-(5-(2-(2-((1-methyl-1H-pyrazol-4-yl)amino)pyrimidin-4-yl)thiazol-4-yl)pyridin-3-yl)pyrrolidin-2-one or (S)-3-hydroxy-1-methyl-3-(5-(2-(2-((1-methyl-1H-pyrazol-4-yl)amino)pyrimidin-4-yl)thiazol-4-yl)pyridin-3-yl)pyrrolidin-2-one] | 100 to 500 nM | < 100 nM | 
Cc1ccc(CNc2nccc(-c3csc(-c4cccc([C@]5(O)CCN(C)C5=O)c4)n3)n2)nc1 [Example 203] | > 501 nM | < 100 nM | 
C[C@H](Nc1nccc(-c2nc(-c3cc([C@]4(O)CCN(C)C4=O)ccn3)cs2)n1)c1ccn(C)n1 (single isomer, unassigned) [Example 156, (R)-3-hydroxy-1-methyl-3-(2-(2-(2-(((S)-1-(1-methyl-1H-pyrazol-3-yl)ethyl)amino)pyrimidin-4-yl)thiazol-4-yl)pyridin-4-yl)pyrrolidin-2-one or (S)-3-hydroxy-1-methyl-3-(2-(2-(2-(((S)-1-(1-methyl-1H-pyrazol-3-yl)ethyl)amino)pyrimidin-4-yl)thiazol-4-yl)pyridin-4-yl)pyrrolidin-2-one] | 100 to 500 nM | < 100 nM | 
CN1CC[C@@](O)(c2cccc(-c3nc(-c4ccnc(NCCCO)n4)cs3)c2)C1=O [Example 174] | > 501 nM | < 100 nM | 
Cc1csc(Nc2nccc(-c3csc(-c4cccc([C@]5(O)CCN(C)C5=O)c4)n3)n2)n1 [Example 247] | 100 to 500 nM | < 100 nM | 
C[C@@H](Nc1nccc(-n2ccc(-c3cccc([C@]4(O)CCN(C)C4=O)c3)n2)n1)c1ccnn1C (single isomer, unassigned) [Example 92] | < 100 nM | < 100 nM | 
Cc1ncc(CNc2nccc(-c3csc(-c4cccc([C@]5(O)CCN(C)C5=O)c4)n3)n2)o1 [Example 110, (R)-3-hydroxy-1-methyl-3-(3-(4-(2-(((2-methyloxazol-5-yl)methyl)amino)pyrimidin-4-yl)thiazol-2-yl)phenyl)pyrrolidin-2-one] | > 501 nM | < 100 nM | 
CN1CCC(O)(c2ccnc(-c3nc(-c4ccnc(Nc5ccn(C)n5)n4)cs3)c2)C1=O (single isomer, unassigned) [Example 33, 3-hydroxy-1-methyl-3-(2-(4-(2-((1-methyl-1H-pyrazol-3-yl)amino)pyrimidin-4-yl)thiazol-2-yl)pyridin-4-yl)pyrrolidin-2-one] |  | > 501 nM | > 501 nM
CN1CC[C@@](O)(c2cccc(-c3nc(-c4ccnc(NCc5ncco5)n4)cs3)c2)C1=O [Example 111, (R)-3-hydroxy-1-methyl-3-(3-(4-(2-((oxazol-2-ylmethyl)amino)pyrimidin-4-yl)thiazol-2-yl)phenyl)pyrrolidin-2-one] | > 501 nM | < 100 nM | 
CN1CC[C@@](O)(c2ccnc(-c3ccn(-c4ccnc(Nc5cnn6ccccc56)n4)n3)c2)C1=O (single isomer, unassigned) [Example 153, (R)-3-hydroxy-1-methyl-3-(2-(1-(2-(pyrazolo[1,5-a]pyridin-3-ylamino)pyrimidin-4-yl)-1H-pyrazol-3-yl)pyridin-4-yl)pyrrolidin-2-one or (S)-3-hydroxy-1-methyl-3-(2-(1-(2-(pyrazolo[1,5-a]pyridin-3-ylamino)pyrimidin-4-yl)-1H-pyrazol-3-yl)pyridin-4-yl)pyrrolidin-2-one] | < 100 nM | < 100 nM | 
CN1CC[C@@](O)(c2cccc(-c3nc(-c4ccnc(Nc5cnn(C(F)F)c5)n4)cs3)c2)C1=O [Example 271, (R)-3-(3-(4-(2-((1-(Difluoromethyl)-1H-pyrazol-4-yl)amino)pyrimidin-4-yl)thiazol-2-yl)phenyl)-3-hydroxy-1-methylpyrrolidin-2-one] | 100 to 500 nM | < 100 nM | 
CC(=O)N1CC[C@@H](Nc2nccc(-c3csc(-c4cccc([C@]5(O)CCN(C)C5=O)c4)n3)n2)C1 [Example 212] | > 501 nM | < 100 nM | 
CN1CC[C@@](O)(c2cccc(-c3nc(-c4ccnc(NCCc5cn(C)cn5)n4)cs3)c2)C1=O [Example 211] | > 501 nM | > 501 nM | 
CN1CC[C@@](O)(c2cncc(-c3ccn(-c4ccnc(Nc5ccn(C)n5)n4)n3)c2)C1=O (single isomer, unassigned) [Example 147, (R)-3-hydroxy-1-methyl-3-(5-(1-(2-((1-methyl-1H-pyrazol-3-yl)amino)pyrimidin-4-yl)-1H-pyrazol-3-yl)pyridin-3-yl)pyrrolidin-2-one or (S)-3-hydroxy-1-methyl-3-(5-(1-(2-((1-methyl-1H-pyrazol-3-yl)amino)pyrimidin-4-yl)-1H-pyrazol-3-yl)pyridin-3-yl)pyrrolidin-2-one] | 100 to 500 nM | < 100 nM | 

— US20250304567A1, “PYRROLIDIONE DERIVATIVES AS INHIBITORS OF NF KAPPA B INDUCING KINASE” (priority 2022, published 2025)
